# Key:
# GABAB1A = GABAB1A (Homo sapiens, UniProt Q9UBS5); experiment: Safety screen; format: binding
# Method: Blood cell counts, kinase profiler, safety screen, bacterial cytotoxicity, Ames, micronucleus assays were performed by the company Eurofins (France).
# Glutamate, NMDA, Glycine = experiment: Safety screen; format: binding, rat
# Method: (§1) Blood cell counts, kinase profiler, safety screen, bacterial cytotoxicity, Ames, micronucleus assays were performed by the company Eurofins (France). The kinase profiler was performed by the company Eurofins (Discovery, Panlab and Cerep).
# Abl(m) = Abl(m) (Mus musculus, UniProt P00520); experiment: Kinase Profiler; format: biochemical
# Method: (§2) The kinase profiler was performed by the company Eurofins (Discovery, Panlab and Cerep).
# Abl(T315I)(h) = Abl(T315I)(h) (Homo sapiens, UniProt P00519, T315I); experiment: Kinase Profiler; format: biochemical
# Method: as §2
# CLK1(h) = CLK1(h) (Homo sapiens, UniProt P49759); experiment: Kinase Profiler; format: biochemical
# Method: as §2
# MKK6(h) = MKK6(h) (Homo sapiens, UniProt P52564); experiment: Kinase Profiler; format: biochemical
# MKK6(h), sequence (P52564 whole entry): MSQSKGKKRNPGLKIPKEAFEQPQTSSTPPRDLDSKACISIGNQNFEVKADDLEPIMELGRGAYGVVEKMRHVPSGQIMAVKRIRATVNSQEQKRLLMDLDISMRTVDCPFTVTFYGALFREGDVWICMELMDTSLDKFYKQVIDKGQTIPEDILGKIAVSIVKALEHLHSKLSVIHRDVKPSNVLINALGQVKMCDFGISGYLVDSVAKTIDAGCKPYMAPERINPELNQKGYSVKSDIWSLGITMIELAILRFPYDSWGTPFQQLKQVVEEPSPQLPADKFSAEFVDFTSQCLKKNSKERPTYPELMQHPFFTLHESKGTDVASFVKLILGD
# Method: as §2
# PAK2(h) = PAK2(h) (Homo sapiens, UniProt Q13177); experiment: Kinase Profiler; format: biochemical
# PAK2(h), sequence (Q13177 whole entry): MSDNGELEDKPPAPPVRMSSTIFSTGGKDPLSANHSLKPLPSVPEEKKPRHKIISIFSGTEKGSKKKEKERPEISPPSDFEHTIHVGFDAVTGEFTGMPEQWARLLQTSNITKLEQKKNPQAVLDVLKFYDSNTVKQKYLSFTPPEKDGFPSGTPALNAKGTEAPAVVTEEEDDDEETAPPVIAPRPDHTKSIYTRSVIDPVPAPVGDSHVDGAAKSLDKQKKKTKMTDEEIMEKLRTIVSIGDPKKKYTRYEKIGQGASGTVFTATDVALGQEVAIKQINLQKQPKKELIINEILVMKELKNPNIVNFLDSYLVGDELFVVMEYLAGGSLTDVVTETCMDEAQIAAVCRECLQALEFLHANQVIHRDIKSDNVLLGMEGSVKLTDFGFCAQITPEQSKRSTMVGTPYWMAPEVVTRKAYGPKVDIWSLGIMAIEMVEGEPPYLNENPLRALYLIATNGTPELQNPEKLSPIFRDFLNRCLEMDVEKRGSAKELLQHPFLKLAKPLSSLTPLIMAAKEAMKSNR
# Method: as §1
# PrKX(h) = PrKX(h) (Homo sapiens, UniProt P51817); experiment: Kinase Profiler; format: biochemical
# PrKX(h), sequence (P51817 whole entry): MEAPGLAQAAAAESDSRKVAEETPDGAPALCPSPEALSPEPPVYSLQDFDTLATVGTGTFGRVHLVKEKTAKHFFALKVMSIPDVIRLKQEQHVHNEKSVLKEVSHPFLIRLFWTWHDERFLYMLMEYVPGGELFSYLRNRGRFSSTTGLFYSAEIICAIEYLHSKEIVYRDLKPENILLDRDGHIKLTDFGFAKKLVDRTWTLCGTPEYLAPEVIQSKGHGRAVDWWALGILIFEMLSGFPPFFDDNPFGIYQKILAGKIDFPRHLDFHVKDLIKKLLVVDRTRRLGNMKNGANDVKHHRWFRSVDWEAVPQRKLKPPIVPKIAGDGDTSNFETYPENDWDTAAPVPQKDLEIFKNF
# Method: as §2
# SGK3(h) = SGK3(h) (Homo sapiens, UniProt Q96BR1); experiment: Kinase Profiler; format: biochemical
# Method: as §2
# STK32C(h) = STK32C(h) (Homo sapiens, UniProt Q86UX6); experiment: Kinase Profiler; format: biochemical
# STK32C(h), sequence (Q86UX6 whole entry): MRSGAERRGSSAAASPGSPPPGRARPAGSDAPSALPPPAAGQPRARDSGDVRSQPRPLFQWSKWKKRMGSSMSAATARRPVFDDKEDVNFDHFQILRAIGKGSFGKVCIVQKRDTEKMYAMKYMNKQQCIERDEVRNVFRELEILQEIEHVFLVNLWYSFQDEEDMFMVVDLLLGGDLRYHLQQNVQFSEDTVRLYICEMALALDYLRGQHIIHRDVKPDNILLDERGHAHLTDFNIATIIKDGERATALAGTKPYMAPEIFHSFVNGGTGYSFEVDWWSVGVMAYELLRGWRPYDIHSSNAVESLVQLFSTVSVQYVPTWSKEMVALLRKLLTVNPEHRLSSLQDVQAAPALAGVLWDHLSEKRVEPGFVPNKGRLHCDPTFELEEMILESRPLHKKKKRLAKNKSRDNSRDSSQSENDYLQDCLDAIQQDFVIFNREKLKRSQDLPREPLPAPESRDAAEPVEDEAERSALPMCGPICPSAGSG
# Method: as §2
# WNK2(h) = WNK2(h) (Homo sapiens, UniProt Q9Y3S1); experiment: Kinase Profiler; format: biochemical
# Method: as §2
# WNK4(h) = WNK4(h) (Homo sapiens, UniProt Q96J92); experiment: Kinase Profiler; format: biochemical
# WNK4(h), sequence (Q96J92 whole entry): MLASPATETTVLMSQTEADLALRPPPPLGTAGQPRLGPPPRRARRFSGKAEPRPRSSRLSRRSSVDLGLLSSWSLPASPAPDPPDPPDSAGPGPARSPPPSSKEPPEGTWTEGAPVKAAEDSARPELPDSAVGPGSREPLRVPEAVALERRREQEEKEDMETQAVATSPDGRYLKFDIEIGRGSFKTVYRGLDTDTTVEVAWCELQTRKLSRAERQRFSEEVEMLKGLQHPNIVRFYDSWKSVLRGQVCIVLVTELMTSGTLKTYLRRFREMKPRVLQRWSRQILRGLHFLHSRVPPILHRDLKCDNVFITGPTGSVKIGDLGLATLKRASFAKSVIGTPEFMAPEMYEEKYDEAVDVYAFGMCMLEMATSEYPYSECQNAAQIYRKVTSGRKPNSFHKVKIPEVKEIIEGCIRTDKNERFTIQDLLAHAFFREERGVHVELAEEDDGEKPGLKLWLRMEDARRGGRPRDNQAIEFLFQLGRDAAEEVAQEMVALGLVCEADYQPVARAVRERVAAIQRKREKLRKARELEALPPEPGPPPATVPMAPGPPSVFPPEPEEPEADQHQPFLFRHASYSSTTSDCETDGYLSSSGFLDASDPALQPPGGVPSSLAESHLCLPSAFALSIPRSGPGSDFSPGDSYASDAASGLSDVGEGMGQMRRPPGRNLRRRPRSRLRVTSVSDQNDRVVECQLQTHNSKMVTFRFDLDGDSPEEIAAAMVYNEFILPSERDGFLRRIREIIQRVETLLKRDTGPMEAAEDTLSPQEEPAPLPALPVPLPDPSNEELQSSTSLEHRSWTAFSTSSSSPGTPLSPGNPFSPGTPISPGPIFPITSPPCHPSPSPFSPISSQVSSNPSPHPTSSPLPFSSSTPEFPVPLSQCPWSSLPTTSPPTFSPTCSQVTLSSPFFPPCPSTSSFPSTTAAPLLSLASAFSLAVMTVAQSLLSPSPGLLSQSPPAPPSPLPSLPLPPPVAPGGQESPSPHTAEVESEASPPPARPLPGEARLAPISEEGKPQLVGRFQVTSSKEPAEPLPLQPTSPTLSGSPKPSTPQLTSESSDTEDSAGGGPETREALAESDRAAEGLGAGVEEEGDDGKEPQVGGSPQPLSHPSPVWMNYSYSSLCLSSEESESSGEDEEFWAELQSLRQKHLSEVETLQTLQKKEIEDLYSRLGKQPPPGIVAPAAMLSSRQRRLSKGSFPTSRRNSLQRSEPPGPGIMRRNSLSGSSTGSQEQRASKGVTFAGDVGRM
# Method: as §2
# ATR/ATRIP(h) = ATR/ATRIP(h) (Homo sapiens, UniProt Q13535); experiment: Kinase Profiler; format: biochemical
# Method: as §2
# [1] = target: PI3K (p110a(H1047R)/p85a)(m) (Mus musculus, UniProt P42337, H1047R); experiment: Kinase Profiler; format: biochemical
# Method: as §1
# GABAB1A, sequence (Q9UBS5 15-961 limits assumed): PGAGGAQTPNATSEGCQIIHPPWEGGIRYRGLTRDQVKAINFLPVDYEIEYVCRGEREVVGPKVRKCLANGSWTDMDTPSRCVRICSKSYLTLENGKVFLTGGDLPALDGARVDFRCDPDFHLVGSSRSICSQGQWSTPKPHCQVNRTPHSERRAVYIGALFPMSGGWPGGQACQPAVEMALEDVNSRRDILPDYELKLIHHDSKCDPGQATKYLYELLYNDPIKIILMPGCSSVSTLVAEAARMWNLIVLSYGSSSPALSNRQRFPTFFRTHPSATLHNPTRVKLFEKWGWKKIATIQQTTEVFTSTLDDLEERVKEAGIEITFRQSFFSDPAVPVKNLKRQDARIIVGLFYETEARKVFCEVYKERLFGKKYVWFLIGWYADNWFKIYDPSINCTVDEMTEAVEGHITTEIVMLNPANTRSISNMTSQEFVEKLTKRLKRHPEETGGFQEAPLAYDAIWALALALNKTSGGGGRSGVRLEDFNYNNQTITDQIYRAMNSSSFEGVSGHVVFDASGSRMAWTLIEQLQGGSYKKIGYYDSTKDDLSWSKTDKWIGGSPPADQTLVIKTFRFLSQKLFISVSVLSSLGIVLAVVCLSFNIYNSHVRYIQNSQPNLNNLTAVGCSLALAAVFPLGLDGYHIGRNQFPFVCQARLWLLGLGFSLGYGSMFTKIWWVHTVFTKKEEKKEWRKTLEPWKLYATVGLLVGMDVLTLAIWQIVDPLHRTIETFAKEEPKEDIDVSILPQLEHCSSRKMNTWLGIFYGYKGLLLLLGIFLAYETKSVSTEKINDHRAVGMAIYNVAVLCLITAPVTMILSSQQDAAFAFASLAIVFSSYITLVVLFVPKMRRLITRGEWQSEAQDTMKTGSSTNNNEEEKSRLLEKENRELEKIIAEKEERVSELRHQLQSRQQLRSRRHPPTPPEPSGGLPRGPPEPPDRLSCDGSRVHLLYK
# Abl(m), sequence (P00520 27-1123 limits assumed): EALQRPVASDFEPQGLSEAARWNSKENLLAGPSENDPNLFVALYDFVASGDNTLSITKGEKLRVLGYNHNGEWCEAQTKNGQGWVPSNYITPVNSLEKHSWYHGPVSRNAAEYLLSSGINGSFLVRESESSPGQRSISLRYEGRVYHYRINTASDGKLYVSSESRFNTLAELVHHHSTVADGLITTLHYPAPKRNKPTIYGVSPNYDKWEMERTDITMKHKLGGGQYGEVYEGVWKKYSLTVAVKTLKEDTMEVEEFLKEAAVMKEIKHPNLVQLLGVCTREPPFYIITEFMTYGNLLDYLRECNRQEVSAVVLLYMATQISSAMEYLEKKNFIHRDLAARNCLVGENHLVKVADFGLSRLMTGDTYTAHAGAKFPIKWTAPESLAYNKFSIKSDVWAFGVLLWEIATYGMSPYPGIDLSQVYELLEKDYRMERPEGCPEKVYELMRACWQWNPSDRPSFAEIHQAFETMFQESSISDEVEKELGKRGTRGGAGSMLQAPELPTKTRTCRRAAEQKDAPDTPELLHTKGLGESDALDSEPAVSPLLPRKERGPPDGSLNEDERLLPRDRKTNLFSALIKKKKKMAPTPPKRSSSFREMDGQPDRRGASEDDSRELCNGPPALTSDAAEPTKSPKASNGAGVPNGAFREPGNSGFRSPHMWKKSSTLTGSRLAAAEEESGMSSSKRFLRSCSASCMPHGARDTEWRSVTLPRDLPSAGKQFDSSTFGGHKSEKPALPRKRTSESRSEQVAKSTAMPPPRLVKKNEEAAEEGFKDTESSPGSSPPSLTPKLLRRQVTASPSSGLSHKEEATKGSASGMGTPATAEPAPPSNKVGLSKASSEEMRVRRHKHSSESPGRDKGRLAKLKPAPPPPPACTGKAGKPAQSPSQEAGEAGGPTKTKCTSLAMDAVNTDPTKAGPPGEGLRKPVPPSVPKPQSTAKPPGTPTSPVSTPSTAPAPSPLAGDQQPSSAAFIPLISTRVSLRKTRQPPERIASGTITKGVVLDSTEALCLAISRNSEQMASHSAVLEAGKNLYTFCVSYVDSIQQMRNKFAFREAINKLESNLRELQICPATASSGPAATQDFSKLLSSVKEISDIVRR
smiles,measurement,setting,value
COc1ccc(OC)c(NS(=O)(=O)c2ccc(NC(=O)CCSc3ccc(C)cc3)cc2)c1 [Compound A41],% inh.,GABAB1A,-6%
same,% inh.,"Glutamate, NMDA, Glycine",7%
same,Activity(%),Abl(m),125%
same,Activity(%),Abl(T315I)(h),117%
same,Activity(%),CLK1(h),81%
same,Activity(%),MKK6(h),90%
same,Activity(%),PAK2(h),110%
same,Activity(%),PrKX(h),98%
same,Activity(%),SGK3(h),106%
same,Activity(%),STK32C(h),105%
same,Activity(%),WNK2(h),90%
same,Activity(%),WNK4(h),107%
same,Activity(%),ATR/ATRIP(h),93%
same,Activity(%),[1],100%

# Reference: article PMC12281424, “A Rac-specific competitive inhibitor of guanine nucleotide binding reduces metastasis in triple-negative breast cancer” (Cell Reports Medicine, 2025)
